Measured values as given in the NIST ThermoML archive (doi:10.1021/je900293j).
Numbers after ± are expanded uncertainties.

Details: Transpiration method

Row | Structure (SMILES) | vapor or sublimation pressure (283.15 K, Liquid) [kPa] | vapor or sublimation pressure (293.15 K, Liquid) [kPa] | vapor or sublimation pressure (303.15 K, Liquid) [kPa] | vapor or sublimation pressure (313.15 K, Liquid) [kPa] | vapor or sublimation pressure (283.15 K, Crystal) [kPa] | vapor or sublimation pressure (293.15 K, Crystal) [kPa] | vapor or sublimation pressure (303.15 K, Crystal) [kPa] | vapor or sublimation pressure (313.15 K, Crystal) [kPa]
1 | CCCCCCCCCCCCCC [tetradecane] | 0.000427 ± 1.7e-05 | 0.00121 ± 5e-05 | 0.00322 ± 0.00013 | 0.0081 ± 0.00031 |  |  |  | 
2 | Cc1cccc([N+](=O)[O-])c1 [3-nitrotoluene] |  | 0.00855 ± 0.0012 | 0.0195 ± 0.0028 | 0.0378 ± 0.0055 | 0.00339 ± 0.00049 |  |  | 
3 | Cc1ccc([N+](=O)[O-])cc1 [1-methyl-4-nitrobenzene] |  |  |  |  | 0.00125 ± 0.00018 | 0.00379 ± 0.00055 | 0.0102 ± 0.0015 | 0.0264 ± 0.0038
4 | Cc1ccccc1[N+](=O)[O-] [2-nitrotoluene] | 0.00553 ± 0.0008 | 0.0127 ± 0.0018 | 0.0297 ± 0.0043 | 0.0611 ± 0.0088 |  |  |  | 
